These results are taken from patent US9283277B2, “Methods and compositions for the treatment of obesity” (Children's Medical Center Corporation, priority 2008, dated 2016).

Format in all cases: in vivo
The subject of test [1] is PERK (Thr980) phosphorylation. The test is described as follows: Hypothalamic PERK (Thr980) phosphorylation in ob/ob mice. The settings on record: vs vehicle. How it is done: Nine-week old lean wt and ob/ob mice were orally treated with either PBA (1 g/kg/day) or vehicle (VEH) for 26 days and PERK (Thr980) phosphorylation is examined in the hypothalamus extracts with direct immunoblotting. (B) Ten week-old wt lean and ob/ob mice were intraperitoneally injected with leptin (0.1 mg/kg) after six-hour starvation. Hypothalami were removed 30 minutes after the injections, and pStat3^Tyr705 and total Stat3 levels were examined. (C) Nine-week old lean wt and ob/ob mice were orally treated with PBA (1 g/kg/day) for 10 days. Following the pretreatment period, leptin-deficient ob/ob mice were either administered with VEH or with different doses of leptin through the intraperitoneal route. […]
(a) Hypothalamic PERK phosphorylation (Thr980) after 21 days of vehicle or TUDCA (150 mg/kg/day) treatment. […] Error bars are ±S.E.M., P values are determined by Student's t-test. […]
If the postulate that reduction of ER stress in the hypothalamus increases leptin sensitivity is true, chemical chaperones other than PBA should also create the same effect and sensitize the obese mice to leptin. […] For this purpose we treated ob/ob mice either with vehicle or TUDCA (150 mg/kg/day) for a period of 21 days and analyzed the hypothalamic PERK phosphorylation. […]

For a further test, the system named is ob/ob mice. Description: PBA pretreatment and leptin administration in ob/ob mice. To be noted: for initial body weight: vehicle or PBA pretreated. How it is done: (§1) Nine-week old lean wt and ob/ob mice were orally treated with either PBA (1 g/kg/day) or vehicle (VEH) for 26 days and PERK (Thr980) phosphorylation is examined in the hypothalamus extracts with direct immunoblotting. (B) Ten week-old wt lean and ob/ob mice were intraperitoneally injected with leptin (0.1 mg/kg) after six-hour starvation. Hypothalami were removed 30 minutes after the injections, and pStat3^Tyr705 and total Stat3 levels were examined. (C) Nine-week old lean wt and ob/ob mice were orally treated with PBA (1 g/kg/day) for 10 days. Following the pretreatment period, leptin-deficient ob/ob mice were either administered with VEH or with different doses of leptin through the intraperitoneal route. The effect of VEH or PBA administration on (C) bodyweight (g), (D) percent decrease in bodyweight and (E) 24-hour food intake (n=3 for VEH and n=4 PBA-treated group). Effect of 5 mg/kg/day leptin administration on (F) bodyweight, (G) percent decrease in bodyweight and (H) 24-hour food intake in VEH- or PBA-treated ob/ob mice (n=3 for VEH and n=4 PBA-treated group). Analysis of the same parameters (body weight, percent decrease in bodyweight and 24-hour food intake) in (I, J, K) 1 mg/kg/day and (L, M, N) 0.1 mg/kg/day leptin-treated mice (n=3 for VEH and n=4 PBA-treated group). Data presented as means±SEM (*p<0.05, **p<0.01, ***p<0.001).
To test whether reduction of ER stress will increase leptin sensitivity of the ob/ob mice, we orally administered PBA or vehicle for 10 days as a pretreatment. Following this period, daily leptin injections (IP) were given at doses ranging from 0.01 mg/kg/day to 5 mg/kg/day. […]

For a further test, the system named is db/db mice. The test is described as follows: PBA and leptin co-administration in db/db mice. The settings on record: for body weight / food consumption / food intake: PBA 1 g/kg/day oral and/or leptin 1 mg/kg IP, 16 days. How it is done: Six-week old db/db mice were orally treated with either PBA (1 g/kg/day) or VEH for four days. Following the pretreatment period, leptin receptor-deficient db/db mice were either administered with VEH or leptin (1 mg/kg) through intraperitoneal route for 16 days. (a) Bodyweight (g), (b) percent increase in bodyweight and (c) 24-hour food intake, (d) Blood glucose (mg/dl) levels of the groups. (n=5 in each group). Error bars are ±S.E.M., P values are determined by Student's t-test. (*p<0.05, **p<0.01, ***p<0.001).
We investigated whether the effect created by PBA and leptin combinatory treatment is solely mediated through the LepRb and not due to a non-specific effect. First, we pretreated db/db mice with PBA or vehicle for four days and subsequently initiated the leptin (1 mg/kg) treatment.

The subject of test [2] is Stat3 Tyr705 phosphorylation. Description: Leptin-stimulated Stat3 Tyr705 phosphorylation in hypothalamus of wt lean and ob/ob mice. To be noted: leptin 0.1 mg/kg IP, six hour fasting, 30 minutes. How it is done:
as §1, with “***p<0.001). […]” for “***p<0.001).”

Setting [3] is: oral PBA 1 g/kg/day alone vs vehicle.
Setting [4] is: leptin 1 mg/kg/day IP, vehicle or PBA (1 g/kg/day) pretreated.
[5] abbreviates: leptin 5 mg/kg/day IP, 16 days, vehicle or PBA (1 g/kg/day) pretreated.

As to `O=C(O)CCCc1ccccc1` [PBA, 4-phenyl butyric acid], the “PERK (Thr980) phosphorylation in hypothalamus” value in test [1] (PBA 1 g/kg/day orally, 26 days) is reported as “significantly reduced”. In addition, the leptin sensitization result with ob/ob mice (PBA + 0.1 mg/kg/day leptin gives weight loss equivalent to 1 mg/kg/day leptin alone) is “ten-fold”. In addition, in the test with ob/ob mice (setting [3]), the body weight result is given as “did not affect” and the food consumption result is “did not affect”. Besides, in the test with db/db mice, the body weight result is listed as “significantly gained weight” and the “food consumption / food intake” value is “no difference”. Further, in the test with db/db mice (PBA 1 g/kg/day oral vs vehicle), the blood glucose levels result was “reduced to a significantly lower level”.

On to `C[C@H](CCC(=O)NCCS(=O)(=O)O)[C@H]1CC[C@H]2[C@@H]3[C@@H](O)C[C@@H]4C[C@H](O)CC[C@]4(C)[C@H]3CC[C@]12C` [TUDCA, tauroursodeoxycholic acid], for which the “hypothalamic PERK phosphorylation (PERK activity)” value in test [1] (TUDCA 150 mg/kg/day, 21 days) is on record as “down regulated”.

As to “leptin: adipocyte-derived hormone that suppresses appetite”, the “Stat3 Tyr705 phosphorylation in the hypothalamus” value in test [2] (ob/ob mice) was “completely absent”. Further, the “Stat3 Tyr705 phosphorylation in the hypothalamus” value in test [2] (wt lean mice) is reported as “responded well”. The initial body weight in the test on ob/ob mice (before leptin 1 mg/kg/day) amounted to 57.10 ± 0.58 g. Besides, in the test with ob/ob mice (before leptin 5 mg/kg/day), the initial body weight was 56 ± 1.16 g. The “effect on body weight” value in the test with ob/ob mice (leptin 0.1 mg/kg/day IP alone (vehicle pretreated)) is “did not significantly reduce”. In the test with ob/ob mice (setting [4]), the “body weight after treatment” value worked out at 46.61 ± 0.52 g and the decrease in bodyweight is given as 17.73%. Also, in the test with ob/ob mice (leptin 5 mg/kg/day IP after 10 days vehicle or PBA (1 g/kg/day) pretreatment), the food intake entry was “significantly inhibited”. Besides, in the test with ob/ob mice (setting [5]), the “body weight after treatment” value is 41.13 ± 2.35 g and the “decrease in bodyweight from the initial weight” value amounted to 27.33±2.65%. In the test with db/db mice, the body weight entry is listed as “did not decrease” and the “food consumption / food intake” value is “did not decrease”.
